Measurements reported in US8058243B2, “Method for treating a brain cancer with ifenprodil” (HSC Research and Development Limited Partnership, priority 2006, dated 2011).
Where a name gives a salt, the structure may show the parent alone. Read-outs that look alike come from different tables or passages of the source.

System: murine neural precursor cells (neurosphere cultures)
Test: HTS of LOPAC library against secondary neurosphere cultures, MTT proliferation assay at 3 μM, day 7 (z score, P value)
Format: cell-based, mouse
[1] = primary LOPAC screen, 3 μM, MTT, neurosphere proliferation
[2] = yes/no: significantly inhibited neurosphere proliferation in the primary screen
[3] = LOPAC library screen, 3 μM, MTT, secondary neurosphere cultures, day 7
[4] = LOPAC primary screen, neurosphere MTT proliferation, 3 μM, day 7
[5] = yes/no: significantly inhibited neurosphere proliferation (P<0.01) in the primary screen
[6] = yes = significantly inhibited neurosphere proliferation (P<0.01) in the primary screen
[7] = LOPAC library screen at 3 μM, secondary neurosphere cultures, MTT
[8] = yes/no: significantly inhibited neurosphere proliferation (P<0.01) in primary screen
[9] = LOPAC library screen, 3 μM, MTT, neurosphere cultures

SMILES	Z Score	Z score [4]	Activity [8]	further results
NCCCC(=O)O [GABA]	−0.4389			Z score [1]: −0.439; Activity [2]: no
Fc1ccc(C(OCCN2CCN(CCCc3ccccc3)CC2)c2ccc(F)cc2)cc1 [GBR-12909 dihydrochloride]		−10.899		Z Score [3]: −10.9
Cl.Cl.c1ccc(CCCN2CCN(CCOC(c3ccccc3)c3ccccc3)CC2)cc1 [GBR-12935 dihydrochloride]	−11.27	−11.274		Activity [5]: yes
COc1ccc(CNC(=O)/C=C/c2ccc3[nH]cc(CCN(C)C)c3c2)cc1 [GR 4661]	0.1015	0.102		Activity [6]: no
Cn1cc(C(=O)OCC2CCN(CCNS(C)(=O)=O)CC2)c2ccccc21 [GR 113808]	0.992	0.992		Activity [5]: no
COc1[nH]c2ccc(F)cc2c1C(=O)OCC1CCN(CCNS(C)(=O)=O)CC1.NS(=O)(=O)O [GR 125487 sulfamate salt]		−0.194	no	Z Score [7]: −0.1942
COc1ccc(NC(=O)c2ccc(-c3ccc(-c4noc(C)n4)cc3C)cc2)cc1N1CCN(C)CC1 [GR 127935 hydrochloride]		−1.081		Z Score [7]: −1.081; Activity [5]: no
CN(CCOc1ccc(C[C@H](Nc2ccccc2C(=O)c2ccccc2)C(=O)O)cc1)c1ccccn1 [GW1929]	0.01508	0.015	no	
CN(C)c1cc2c(Nc3ccc4c(cnn4Cc4ccccc4)c3)ncnc2cn1 [GW2974]	−0.5164	−0.516	no	
O=C1Nc2ccc(I)cc2/C1=C/c1cc(Br)c(O)c(Br)c1 [GW5074]	−0.1619	−0.162	no	
CC(C)(Sc1ccc(CCN(CCCCC2CCCCC2)C(=O)NC2CCCCC2)cc1)C(=O)O [GW7647]	−0.9923	−0.992	no	
O=C(Nc1ccccc1)c1cc([N+](=O)[O-])ccc1Cl [GW9662]	1.475	1.475		Activity [6]: no
CC1=NN=C(c2ccc(N)cc2)c2cc3c(cc2C1)OCO3 [GYKI 52466 hydrochloride]		−1.864		Z Score [3]: −1.864; Activity [6]: no
CC1Cc2cc3c(cc2C(c2ccc(N)cc2)=NN1)OCO3 (centres unmarked) [GYKI 52895]	−1.258	−1.258		Activity: no
NCC1(CC(=O)O)CCCCC1 [Gabapentin]	0.8838	0.884	no	
CC[N+](CC)(CC)CCOc1cccc(OCC[N+](CC)(CC)CC)c1OCC[N+](CC)(CC)CC [Gallamine triethiodide]		−0.916	no	Z Score [7]: −0.9156
Nc1nc(O)c2ncn(COC(CO)CO)c2n1 [Ganciclovir]		−8.939		Z Score [3]: −8.939; Activity [5]: yes
O=c1c(-c2ccc(O)cc2)coc2cc(O)cc(O)c12 [Genistein]		−0.469		Z Score [7]: −0.4689; Activity [5]: no
COc1ccc(Cl)cc1C(=O)NCCc1ccc(S(=O)(=O)NC(=O)NC2CCCCC2)cc1 [Glibenclamide]		−0.360	no	Z Score [7]: −0.36

SMILES	Z Score	Z score [4]	Activity [8]	further results
Cc1cnc(C(=O)NCCc2ccc(S(=O)(=O)NC(=O)NC3CCCCC3)cc2)cn1 [Glipizide]		−0.830		Activity: no; Z Score [7]: −0.8295
N=C(N)N/N=C/c1c(Cl)cccc1Cl [Guanabenz acetate]		−1.906	no	Z Score [3]: −1.906
N=C(N)NC(=O)Cc1c(Cl)cccc1Cl [Guanfacine hydrochloride]				Z Score [9]: 0.9271
Br.Br.N=C(N)NCCSSCCNC(=N)N [Guanidinoethyl disulfide dihydrobromide]				Z Score (168 h, 3 µM): −4.521; Z score (168 h, 3 µM): −4.521; Activity [6]: yes
Cl.N=C(N)NC(=O)Cc1c(Cl)cccc1Cl [Guranfacine hydrochloride]		0.927	no	
Cl.O=C(O)C1=CCCNC1 [Guvacine hydrochloride]	−1.345	−1.345	no	
CC1CNCCN1S(=O)(=O)c1cccc2cnccc12.Cl.Cl (centres unmarked) [H-7 dihydrochloride]	0.6813	0.681		
CNCCNS(=O)(=O)c1cccc2cnccc12.Cl.Cl [H-8 dihydrochloride]	−1.583	−1.583		Activity [6]: no
Cl.Cl.NCCNS(=O)(=O)c1cccc2cnccc12 [H-9 dihydrochloride]	−0.1899			Z score [1]: −0.190; Activity [2]: no
O=S(=O)(c1cccc2cnccc12)N1CCNCC1 [HA-100]	−0.6892	−0.689		Activity [5]: no
Cl.NC(N)=NCCNS(=O)(=O)c1cccc2cnccc12 [HA-1004 hydrochloride]	0.3161	0.316	no	
CCCCC#Cc1nc(N)c2ncn([C@@H]3O[C@H](C(=O)NCC)[C@@H](O)[C@H]3O)c2n1 [HE-NECA]	−2.504	−2.504		Activity [5]: yes
O=C(CCCN1CCC(O)(c2ccc(Cl)cc2)CC1)c1ccc(F)cc1 [Haloperidol]		−0.740	no	Z Score [7]: −0.7399
Cc1nccc2c1[nH]c1ccccc12 [Harmane]	−1.403	−1.403		
C[N+]1(C)CCOC(O)(c2ccc(-c3ccc(C4(O)C[N+](C)(C)CCO4)cc3)cc2)C1.[Br-].[Br-] (centres unmarked) [Hemicholinium-3]	0.7871	0.787	no	
C[N+](C)(C)CCCCCC[N+](C)(C)C [Hexamethonium bromide]	−0.8199	−0.820		Activity [5]: no
C[N+](C)(C)CCCCCC[N+](C)(C)C.[Cl-].[Cl-] [Hexamethonium dichloride]	−10.63	−10.634		Activity [5]: yes
O=c1cc(O)cc(/C=C/c2ccc(O)c(O)c2)o1 [Hispidin]			no	Z Score (168 h, 3 µM): 0.8896; Z score (168 h, 3 µM): 0.890
Cl.Cl.NCCc1c[nH]cn1 [Histamine dihydrochloride]	−1.476			Activity: no; Z score: −1.476

SMILES	Z Score	Z score [4]	Activity [8]	further results
NNc1nncc2ccccc12 [Hydralazine hydrochloride]		0.259	no	Z Score [9]: 0.2592
NS(=O)(=O)c1cc2c(cc1Cl)NCNS2(=O)=O [Hydrochlorothiazide]		−0.212	no	Z Score [7]: −0.212
C[C@]12CCC(=O)C=C1CC[C@@H]1[C@@H]2[C@@H](O)C[C@@]2(C)[C@H]1CC[C@]2(O)C(=O)COC(=O)CCC(=O)[O-].[Na+] [Hydrocortisone 21-hemisuccinate sodium]		−0.040	no	Z Score [9]: −0.04033
C[C@]12CCC(=O)C=C1CC[C@@H]1[C@@H]2[C@@H](O)C[C@@]2(C)[C@H]1CC[C@]2(O)C(=O)CO [Hydrocortisone]		−3.049		Z Score [3]: −3.049; Activity [6]: yes
Oc1ccc(O)cc1 [Hydroquinone]		0.428	no	Z Score [9]: 0.428
Cl.NO [Hydroxylamine hydrochloride]	1.635			Activity: no; Z score: 1.635
NC(=O)NO [Hydroxyurea]		1.131	no	Z Score [9]: 1.131
NCCS(=O)O [Hypotaurine]	0.2752			Activity: no; Z score: 0.275
COc1cc(/C=C(\C#N)C(=O)c2ccc(O)c(O)c2)cc(I)c1O [I-OMe-Tyrphostin AG 538]				Z Score [7]: −0.7369; Z score [1]: −0.737; Activity [2]: no
CNC(=O)[C@H]1O[C@@H](n2cnc3c(NCc4cccc(I)c4)ncnc32)[C@H](O)[C@@H]1O [IB-MECA]		−1.089	no	Z Score [7]: −1.089
COc1cc(OC)c(C=C2C(O)=Nc3ccccc32)c(OC)c1 [IC 261]	−1.63	−1.630		Activity (yes/no: significantly inhibited neurosphere proliferation in primary screen): no
Cc1ccc(OCC(O)C(C)NC(C)C)c2c1CCC2.Cl (centres unmarked) [ICI 118,551 hydrochloride]	1.101	1.101	no	
CN(C(=O)Cc1ccc(Cl)c(Cl)c1)C(CN1CCCC1)c1cccc(OCC(=O)O)c1.Cl (centres unmarked) [ICI 204,448 hydrochloride]	−0.3636	−0.364	no	
Br.C[N+](C)(C)CCCCCNCC12CC3CC(CC(C3)C1)C2.[Br-] [IEM-1460]	0.6848	0.685	no	
CCCC(=O)NCCc1c2n(c3ccc(OC)cc13)Cc1ccccc1-2 [IIK7]	−0.3544	−0.354	no	
Cl.Fc1ccc(CN(C2=NCCN2)c2c(Cl)cccc2Cl)cc1 [IMID-4F hydrochloride]	−1.906	−1.906	no	
CC(C)C(=O)c1c(C(C)C)nn2ccccc12 [Ibudilast]		0.379		Z Score [9]: 0.3787
O=C1NC(c2cccc([N+](=O)[O-])c2)=CCN1c1ccccc1O [Icilin]			no	Z Score (LOPAC library screen at 3 μM, MTT, secondary neurosphere cultures, screened in singlets): 1.643; Z score (LOPAC screen, neurosphere MTT proliferation, 3 μM, day 7): 1.643
